Three compounds from patent US20030072828A1, “Natural therapeutic composition for the treatment of wounds and sores” (priority 2001, published 2003) can be followed below.

The nature of assay [1]: Personal experience: component topically applied to scalds. It is filed as in vivo. An excerpt:
(§1) From personal experience we have discovered the following traits associated with the specific components of the invention: […]

Assay [2] is described as follows: Personal experience: component topically applied to the skin of the face. It is filed as in vivo.
Excerpt: as §1

A short description of assay [3]: Personal experience: general traits of components. As to conditions: from personal experience.
Excerpt: as §1

For the compound Vitamin E, the “pain and healing of the wound” value in assay [1] is “reduced pain and improved healing of the wound”.
Consider Vitamin A, for which the “appearance of the skin” value in assay [2] is recorded as “improved appearance of the skin”.
Take `O=C1O[C@H]([C@@H](O)CO)C(O)=C1O` [Vitamin C]: in assay [3], the “trait of the component” value is “combating pain and inflammation”.
